Our source for the IC50 values is ChEMBL document CHEMBL4706609, “Development of triazolothiadiazine derivatives as highly potent tubulin polymerization inhibitors: Structure-activity relationship, in vitro and in vivo study” (Eur J Med Chem, 2020).

The subject of one test is HT-29. Kind of test: Antiproliferative activity against human HT-29 cells assessed as reduction in cell growth after 48 hrs by MTT assay. Type of test: functional, cell-based. Conditions: HT-29, 48 h. In general terms: Tetrazolium assays rely on reduction of a dye to a coloured formazan, in cell work by metabolically active cells.
Another test relates to HeLa. Kind of test: Antiproliferative activity against human HeLa cells assessed as reduction in cell growth after 48 hrs by MTT assay. Format: functional, cell-based.
Test [1] has as its system A549. Kind of test: Antiproliferative activity against human A549 cells assessed as reduction in cell growth after 48 hrs by MTT assay. Format: functional, cell-based. Conditions: A549, 48 h.
The subject of a further test is MCF7. Kind of test: Antiproliferative activity against human MCF7 cells assessed as reduction in cell growth after 48 hrs by MTT assay. Type of test: functional, cell-based. Conditions: MCF7, 48 h.
For test [2], the system named is A549. In words: Antiproliferative activity against cisplatin resistant human A549 cells assessed as reduction in cell growth after 48 hrs by MTT assay. Type of test: functional, cell-based. Conditions: A549, 48 h.
The next test has as its system HEK293. In words: Cytotoxicity against HEK293 cells assessed as reduction in cell growth after 48 hrs by MTT assay. Type of test: cell-based. The following applies: Homo sapiens, HEK293, 48 h.
The next test has as its system A2780. In words: Antiproliferative activity against paclitaxel-resistant human A2780 cells assessed as reduction in cell growth after 48 hrs by MTT assay. The following applies: A2780, 48 h. Format: functional, cell-based.
A short description of test [3]: Inhibition of porcine brain tubulin polymerization measured for 20 mins by spectrometric assay. Type of test: tissue-based, Sus scrofa.

By IC50 is commonly meant the concentration needed to halve the response being measured. For `COc1cc(-c2nnc3n2N=C(NCc2ccccc2)CS3)cc(OC)c1OC`, the half-maximal inhibitory concentration (IC50) in the test on HT-29 was greater than 20 µM. On to `COc1cc(-c2nnc3n2N=C(Nc2cccc(F)c2)CS3)cc(OC)c1OC`, for which, in the test on HT-29, the IC50 was greater than 20 µM. Same read-out and setting: the figure for `COc1cc(-c2nnc3n2N=C(c2cccc4ccccc24)CS3)cc(OC)c1OC` is 6.02 µM; for `COc1cc(-c2nnc3n2N=C(NCCc2ccc(F)cc2)CS3)cc(OC)c1OC` it is greater than 20 µM; for `COc1cc(-c2nnc3n2N=C(NCCc2ccc(Cl)cc2)CS3)cc(OC)c1OC` it is greater than 20 µM. Take `COc1cc(-c2nnc3n2N=C(NCCc2ccc(C)cc2)CS3)cc(OC)c1OC`: the 50% inhibitory concentration (IC50) with HT-29 is greater than 20 µM. `COc1cc(-c2nnc3n2N=C(c2ccc(O)cc2)CS3)cc(OC)c1OC`: the half-inhibitory concentration (IC50) in the test on HT-29 was 14.1 µM. On the same count and under the same terms, under `COc1cc(-c2nnc3n2N=C(NCc2ccc(C)cc2)CS3)cc(OC)c1OC` stands greater than 20 µM; under `COc1cc(C2=Nn3c(nnc3-c3ccc(F)cc3)SC2)cc(OC)c1OC`, 19.7 µM. With `COc1cc(-c2nnc3n2N=C(c2ccc([N+](=O)[O-])cc2)CS3)cc(OC)c1OC`, the 50% inhibitory concentration (IC50) in the test on HT-29 is greater than 20 µM. On to `COc1cc(-c2nnc(SCC(=O)c3ccc(C)cc3F)n2N)cc(OC)c1OC`, for which the IC50 in the test with HeLa is 0.04 µM; in the test with HT-29, 0.131 µM; with A549 [1], greater than 100 µM; in the test with MCF7, greater than 100 µM. As to `COc1cc(-c2nnc3n2N=C(c2ccc(Br)cc2)CS3)cc(OC)c1OC`, in the test on HT-29, the IC50 was 5.18 µM. As to `COc1cc(-c2nnc3n2N=C(c2cccc(Br)c2)CS3)cc(OC)c1OC`, in the test with HT-29, the half-inhibitory concentration (IC50) turned out to be 15.4 µM. For the compound `COc1ccc(/C=C\c2cc(OC)c(OC)c(OC)c2)cc1O` [COMBRETASTATIN A4], the concentration for half-maximal inhibition (IC50) in the test on A549 [2] is 130 µM; with HEK293, 45.7 µM; with A2780, 72.8 µM; in the test on A549 [1] it was 0.021 µM. As for `COc1ccc(CCNC2=Nn3c(nnc3-c3cc(OC)c(OC)c(OC)c3)SC2)cc1`, in the test with HT-29, the IC50 is greater than 20 µM. Consider `COc1cc(-c2nnc3n2N=C(Nc2c(Cl)cccc2Cl)CS3)cc(OC)c1OC`, for which the half-maximal inhibitory concentration (IC50) with HT-29 was greater than 20 µM. Regarding `COc1cc(C2=Nn3c(nnc3-c3cc(OC)c(OC)c(OC)c3)SC2)cc(OC)c1OC`, the concentration for half-maximal inhibition (IC50) in the test on HT-29 is 19.9 µM. On to `COc1cc(NC2=Nn3c(nnc3-c3cc(OC)c(OC)c(OC)c3)SC2)cc(OC)c1OC`, for which the half-maximal inhibitory concentration (IC50) in the test on HT-29 was greater than 20 µM. The same measure, in the same setting: the figure for `COc1cc(-c2nnc3n2N=C(C2CC2)CS3)cc(OC)c1OC` is greater than 20 µM. For `COc1ccc(NC2=Nn3c(nnc3-c3cc(OC)c(OC)c(OC)c3)SC2)cc1`, in the test on HT-29, the IC50 was greater than 20 µM. Same read-out and setting: under `COc1cccc(C2=Nn3c(nnc3-c3cc(OC)c(OC)c(OC)c3)SC2)c1` stands 5.94 µM. Turning to `COc1cc(-c2nnc3n2N=C(Nc2ccc(N4CCOCC4)cc2)CS3)cc(OC)c1OC`, the half-inhibitory concentration (IC50) in the test with HT-29 is greater than 20 µM. Consider `COc1cccc(NC2=Nn3c(nnc3-c3cc(OC)c(OC)c(OC)c3)SC2)c1`, for which, in the test on HT-29, the half-maximal inhibitory concentration (IC50) was found to be 12.2 µM. Still for that read-out and setting: the figure for `COc1cc(-c2nnc3n2N=C(Nc2ccccc2F)CS3)cc(OC)c1OC` is 2.9 µM; for `COc1cc(-c2nnc3n2N=C(c2ccc(-c4ccccc4)cc2)CS3)cc(OC)c1OC` it is 13.7 µM. Take `COc1cc(-c2nnc3n2N=C(c2ccccc2C)CS3)cc(OC)c1OC`: in the test on HT-29, the 50% inhibitory concentration (IC50) was found to be 16.1 µM.

As for `COc1cc(-c2nnc3n2N=C(NCc2ccc(Br)cc2)CS3)cc(OC)c1OC`, in the test with HT-29, the IC50 was greater than 20 µM.

For the compound `COc1cc(-c2nnc3n2N=C(Nc2ccc(Cl)cc2)CS3)cc(OC)c1OC`, in the test on HT-29, the IC50 was 2.84 µM. Same read-out and setting: the figure for `COc1cc(-c2nnc3n2N=C(c2cccs2)CS3)cc(OC)c1OC` is 4.25 µM.

As to `COc1cc(-c2nnc3n2N=C(c2cccc(C)c2)CS3)cc(OC)c1OC`, the IC50 in the test on HT-29 turned out to be 13.6 µM. Still for that read-out and setting: the figure for `COc1ccc(-c2nnc3n2N=C(c2cc(OC)c(OC)c(OC)c2)CS3)cc1OC` is greater than 20 µM; for `COc1cc(-c2nnc3n2N=C(c2ccccc2)CS3)cc(OC)c1OC` it is 5.65 µM; for `COc1cc(-c2nnc3n2N=C(Nc2ccccc2C)CS3)cc(OC)c1OC` it is greater than 20 µM. As for `COc1cc(-c2nnc3n2N=C(c2ccc(C(F)(F)F)cc2)CS3)cc(OC)c1OC`, the 50% inhibitory concentration (IC50) was 0.019 µM in the test on HeLa; 4.82 µM in test [3]; greater than 200 µM in the test with A549 [2]; 0.29 µM in the test with HT-29; greater than 100 µM in the test with HEK293; 86.5 µM in the test on A2780. Also, the half-maximal inhibitory concentration (IC50) was determined as 0.286 µM with A549 [1] and 0.241 µM in the test with MCF7. Regarding `COc1cc(-c2nnc3n2N=C(c2ccc(F)c(F)c2)CS3)cc(OC)c1OC`, the IC50 with HT-29 is greater than 20 µM. For the compound `COc1cc(-c2nnc3n2N=C(NCCc2ccccc2)CS3)cc(OC)c1OC`, in the test on HT-29, the IC50 was greater than 20 µM.

Regarding `COc1ccc(-c2nnc3n2N=C(c2cc(OC)c(OC)c(OC)c2)CS3)cc1`, in the test on HT-29, the 50% inhibitory concentration (IC50) is greater than 20 µM.

Regarding `COc1cc(-c2nnc3n2N=C(C)CS3)cc(OC)c1OC`, the IC50 in the test with HT-29 came out at 15.8 µM. With `COc1ccc(C2=Nn3c(nnc3-c3cc(OC)c(OC)c(OC)c3)SC2)cc1O`, the half-maximal inhibitory concentration (IC50) in the test on HT-29 came to 9.81 µM.

Regarding `CCC1=Nn2c(nnc2-c2cc(OC)c(OC)c(OC)c2)SC1`, in the test on HT-29, the IC50 worked out at 15.4 µM. For the compound `COc1ccc(C2=Nn3c(nnc3-c3cc(OC)c(OC)c(OC)c3)SC2)cc1`, the 50% inhibitory concentration (IC50) with HeLa is 0.018 µM; in test [3] it was 2.39 µM; in the test on A549 [2], 67.2 µM; with HT-29, 0.18 µM; in the test with HEK293 it was greater than 100 µM; in the test with A2780, 62.2 µM. In addition, the 50% inhibitory concentration (IC50) turned out to be 0.077 µM with A549 [1] and 0.205 µM with MCF7. For `COc1ccc(-c2nnc3n2N=C(c2cc(OC)c(OC)c(OC)c2)CS3)cc1O`, the IC50 with HT-29 was 9.86 µM. Take `COc1cc(-c2nnc3n2N=C(c2cc4ccccc4oc2=O)CS3)cc(OC)c1OC`: in the test with HT-29, the IC50 was determined as 10.4 µM. Consider `COc1cc(-c2nnc3n2N=C(Nc2ccc(S(C)(=O)=O)cc2)CS3)cc(OC)c1OC`, for which, in the test on HT-29, the half-maximal inhibitory concentration (IC50) was greater than 20 µM. On the same count and under the same terms, under `COc1cc(-c2nnc3n2N=C(Nc2ccc(Br)cc2)CS3)cc(OC)c1OC` stands 18.6 µM; under `COc1cc(-c2nnc3n2N=C(Nc2ccccc2)CS3)cc(OC)c1OC`, 3.25 µM; under `COc1cc(-c2nnc3n2N=C(c2ccco2)CS3)cc(OC)c1OC`, 10.8 µM. `COc1cc(C2=Nn3c(nnc3-c3ccc(Cl)cc3)SC2)cc(OC)c1OC`: the IC50 with HT-29 is greater than 20 µM. Still for that read-out and setting: the figure for `COc1cc(-c2nnc3n2N=C(Nc2ccc(C)cc2)CS3)cc(OC)c1OC` is greater than 20 µM; for `COc1cc(-c2nnc3n2N=C(c2ccc(F)cc2)CS3)cc(OC)c1OC` it is 8.32 µM; for `COc1cc(C2=Nn3c(nnc3-c3ccc(C)cc3)SC2)cc(OC)c1OC` it is greater than 20 µM. `COc1cc(-c2nnc3n2N=C(NCc2ccc(Cl)cc2)CS3)cc(OC)c1OC`: the concentration for half-maximal inhibition (IC50) in the test on HT-29 was greater than 20 µM.

Regarding `COc1cc(-c2nnc3n2N=C(Nc2ccc(F)cc2)CS3)cc(OC)c1OC`, the IC50 in the test with HT-29 came out at 8.11 µM.
